# Data reported in patent publication US9592300B2, “Methods of using redox-active surfactants to control polymer interactions” (WISCONSIN ALUMNI RESEARCH FOUNDATION, priority 2005, dated 2017).
# Like-named read-outs stand apart in the source and are kept apart here.
# Legend:
# [1] = Phase behaviour of FS with HM-EHEC; format: physicochemical; details: 1 wt % HM-EHEC, 10 mM Li2SO4, pH 5
# Source text: The top layer had low viscosity (similar to that of water) and was mildly cloudy; the bottom layer was yellow and highly viscous, almost gel-like. As the concentration of reduced FS increased, the top layer became more cloudy and the bottom layer became less viscous (up to 5 mmolal). As the concentration of reduced FS was decreased (down to 0.1 mmolal), the top layer cleared and the bottom layer became less viscous. […] The solutions made with oxidized FS were faintly blue and cloudy as the concentration increased (from 0.1 to 0.5 mmolal).
# COS-7 cells [2] = system: COS-7 cells
# Protocol: Preparation of lipoplexes for Transfection Assays.
# Cells were then incubated for 48 hours and cell morphology and relative levels of EGFP expression were characterized using phase contrast and fluorescence microscopy.
# For these experiments, cells were incubated with lipoplexes for four hours in serum-free medium, followed by incubation in fresh serum-containing medium (see Materials and Methods Section for complete description of transfection procedures).
# COS-7 cells [3] = details: for concentrations at which maximum gene expression is observed: medium with 10% fetal bovine serum
# [4] = format: physicochemical; details: for cloud point: 0.1 wt % EHEC, 0.1M Li2SO4
# Protocol: Surfactant-ethyl(hydroxylethyl) cellulose (EHEC) interactions were characterized by observing the clouding temperature of solutions of EHEC containing various concentrations of surfactant.
# Sample Preparation. Three samples of each solution were prepared to assess reproducibility. […] The EHEC solution was filtered through 0.22 μm GV Millipore filter, placed under vacuum for 30-45 minutes, then bubbled with argon for another 30-45 minutes. This deaeration procedure was performed for all solutions, including solutions of DTAB.
# The solutions of polymer, salt, and surfactant were then mixed to form 0.1 wt % EHEC, 0.1M Li2SO4, and the desired concentration of surfactant. These solutions were deaerated three times and bubbled with argon inside airtight containers. These solutions were stored at 25° C. and measured after 3 hours and 1 day.
# They were simply filtered, mixed to the desired concentrations, and stored for one day before measurements of cloud points and light scattering were performed.
# Cloud Point Measurements. Solution of EHEC and surfactant were immersed in a temperature bath controlled to within 0.1° C. The temperature was increased by 1° C. every 10 minutes and the solutions were visually inspected for clouding. […] The values reported in this study are based on clouding points measured upon increasing the temperature of the solutions.
# [5] = Critical micelle concentration (CMC) in 0.1M Li2SO4; format: physicochemical
# [6] = Dynamic light scattering of surfactant micelles (no polymer); format: physicochemical; details: 0.1M Li2SO4, no polymer, […]° C., center-of-mass diffusion of spheres (200 mmolal DTAB; 25 mmolal reduced FTMA)
# [7] = QLS hydrodynamic size of BFDMA solutions without DNA; format: physicochemical; details: 10 μM BFDMA, Opti-MEM, 25° C.
# Protocol: (§1) 1) A solution of 100 μM reduced BFDMA was prepared by dissolving BFDMA (solid) in water.
# (§2) 2) A solution of 100 μM oxidized BFDMA was prepared as follows: First, a […] reduced BFDMA solution was prepared by dissolving BFDMA (solid) in 1 mM Li2SO4 aqueous solution, and then the solution was oxidized electrochemically. The resultant oxidized BFDMA solution was diluted with water to give a solution of 100 μM oxidized BFDMA.
# 150 μl of 100 μM reduced/oxidized BFDMA solution was diluted with 150 μl of water, followed by the addition of 1.2 ml of Opti-MEM. The final BFDMA concentration was 10 μM. QLS measurements were made at 25° C. immediately after the samples were prepared.
# pGFP = assay: QLS hydrodynamic size of BFDMA/DNA complexes; format: physicochemical; details: 10 μM BFDMA, 2.4 μg/ml DNA, Opti-MEM, 25° C.
# Protocol: as §1, §2
# 1) 150 μl of 100 μM reduced/oxidized BFDMA solution was diluted with 150 μl of 24 μg/ml pGFP aqueous solution, and the solution was allowed to stand for 20 min at room temperature. 1.2 ml of Opti-MEM was added to the solution to yield a final BFDMA concentration of 10 μM and a final DNA concentration of 2.4 μg/ml. QLS measurements were made at 25° C. immediately after the samples were prepared.
# pEGFP-N1 = details: serum-free cell culture medium;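 further: dynamic light scattering of lipoplexes formed from BFDMA and pEGFP-N1 plasmid (2.4 µg/ml), scattering angles 30° to 110°, autocorrelation functions analysed with CONTIN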
# COS-7 cells [8] = assay: Live/dead cytotoxicity assay of lipoplexes
# [9] = [BFDMA] 6 μM, listed as Ox. BFDMA
# [10] = [BFDMA] 8 μM, listed as Ox. BFDMA
# [11] = [BFDMA] 10 μM, listed as Ox. BFDMA
# [12] = [BFDMA] 20 μM, listed as Ox. BFDMA
# [13] = [BFDMA] 60 μM, listed as Ox. BFDMA
# [14] = [BFDMA] 6 μM, listed as Red. BFDMA
# [15] = [BFDMA] 8 μM, listed as Red. BFDMA
# [16] = [BFDMA] 10 μM, listed as Red. BFDMA
# [17] = [BFDMA] 20 μM, listed as Red. BFDMA
# [18] = [BFDMA] 60 μM, listed as Red. BFDMA
molecule,measurement,setting,value
11-ferrocenylundecylsulfonate [oxidized FS],liquid-liquid phase separation,[1],did not form two coexisting liquid phases
11-ferrocenylundecylsulfonate [reduced FS],liquid-liquid phase separation,[1],caused a liquid-liquid phase separation
"C[N+](C)(CCCCCCCCCCC[c-]1cccc1)CCCCCCCCCCC[c-]1cccc1.[Br-].[Fe+2].[Fe+2].c1cc[cH-]c1.c1cc[cH-]c1 [BFDMA, bis(11-ferrocenylundecyl)dimethylammonium bromide]",transfection activity following electrochemical cycling (EGFP expression),"COS-7 cells [2]; oxidized at 500 mV, then reduced at −44 mV prior to contact with DNA",retains transfection activity
same,magnitude of gene expression in presence of serum relative to serum-free medium,"COS-7 cells [3]; four hours exposure, 10% fetal bovine serum",approximately one order of magnitude lower
"CCCCCCCCCCCC[N+](C)(C)C.[Br-] [DTAB, dodecyltrimethyl ammonium bromide]",clouding temperature compared to solutions free of DTAB,[4]; 1 mM DTAB,not measurably lowered
same,lowering of clouding temperature of EHEC solutions,[4]; 5 mmolal DTAB (from 32° C. to 26° C.),6 °C
same,cloud point,[4]; 5 mmolal DTAB,26-27 °C
same,cloud point,[4]; DTAB concentrations near its CMC (10 mM),14±0.3 °C
same,CMC,[5],10 mM
same,hydrodynamic diameter of micelles,[6],4 nm
O=S(=O)([O-])[O-].[Li+].[Li+] [Li2SO4],clouding temperature,"[4]; 0.1% (w/w) EHEC, 1M Li2SO4, pH 2.5",less than 6 °C
"C[N+](C)(CCCCCCCCCCC[c-]1cccc1)CCCCCCCCCCC[c-]1cccc1.[Br-].[Fe+2].[Fe+2].c1cc[cH-]c1.c1cc[cH-]c1 [oxidized BFDMA, bis(11-ferrocenylundecyl)dimethylammonium bromide]",hydrodynamic size of aggregates w/o DNA,"[7]; time 0 min, listed as ox",363.4 nm
same,hydrodynamic size of aggregates w/o DNA,"[7]; time 120 min, listed as ox",496 nm
same,hydrodynamic size of aggregates w/o DNA,"[7]; time 240 min, listed as ox",511 nm
same,hydrodynamic size of aggregates w/ DNA,"pGFP; time 0 min, listed as ox",209.6 nm
same,hydrodynamic size of aggregates w/ DNA,"pGFP; time 120 min, listed as ox",221.4 nm
same,hydrodynamic size of aggregates w/ DNA,"pGFP; time 240 min, listed as ox",297.2 nm
same,EGFP expression (cell transfection),"COS-7 cells [2]; 20 μM lipid, 4 h exposure in serum-free medium, 48 h",relatively high levels
same,"EGFP gene expression, generally","COS-7 cells [2]; 2-40 μM lipid, 4 h exposure in serum-free medium, 48 h",very low levels
same,levels of gene expression versus reduced BFDMA,"COS-7 cells [3]; 2 hours exposure, serum-free",dramatically lower
same,luciferase expression,"COS-7 cells [3]; 12 hour exposure, serum-free, 20 μM",in excess of expression mediated by reduced BFDMA
same,concentrations at which maximum gene expression is observed,COS-7 cells [3]; four hours exposure,40 µM and 60 µM
same,Number-Avg Diameter,"pEGFP-N1; [BFDMA] 2 μM, 600 ng DNA, listed as Ox. BFDMA",89 (±40) nm
same,Intensity-Avg Diameter,"pEGFP-N1; [BFDMA] 2 μM, listed as Ox. BFDMA",196 (±86) nm
same,Intensity-Avg Diameter,pEGFP-N1; [9],217 (±58) nm
same,Number-Avg Diameter,pEGFP-N1; [9],64 (±25) nm
same,Intensity-Avg Diameter,pEGFP-N1; [10],228 (±100) nm
same,Number-Avg Diameter,pEGFP-N1; [10],86 (±37) nm
same,Intensity-Avg Diameter,pEGFP-N1; [11],266 (±212) nm
same,Number-Avg Diameter,pEGFP-N1; [11],110 (±55) nm
same,Number-Avg Diameter,pEGFP-N1; [BFDMA] 20 μM,ca. 610 nm
same,Intensity-Avg Diameter,pEGFP-N1; [12],1163 (±150) nm
same,Number-Avg Diameter,pEGFP-N1; [12],611 (±183) nm
same,Intensity-Avg Diameter,pEGFP-N1; [13],1497 (±340) nm
same,Number-Avg Diameter,pEGFP-N1; [13],1254 (±512) nm
same,cytotoxicity relative to DNA alone or commercial controls,"COS-7 cells [8]; 2 hours exposure, any concentration evaluated (2 μM to 60 μM), OptiMEM",not cytotoxic
same,toxicity,"COS-7 cells [8]; 4 hours exposure, e.g. 40 μM and 60 μM",increases at higher concentrations
"C[N+](C)(CCCCCCCCCCC[c-]1cccc1)CCCCCCCCCCC[c-]1cccc1.[Br-].[Fe+2].[Fe+2].c1cc[cH-]c1.c1cc[cH-]c1 [reduced BFDMA, bis(11-ferrocenylundecyl)dimethylammonium bromide]",hydrodynamic size of aggregates w/o DNA,"[7]; time 0 min, listed as red",472.8 nm
same,hydrodynamic size of aggregates w/o DNA,"[7]; time 120 min, listed as red",1214 nm
same,hydrodynamic size of aggregates w/o DNA,"[7]; time 240 min, listed as red",1090.3 nm
same,hydrodynamic size of aggregates w/ DNA,"pGFP; time 0 min, listed as red",689.7 nm
same,hydrodynamic size of aggregates w/ DNA,"pGFP; time 120 min, listed as red",2613.9 nm
same,hydrodynamic size of aggregates w/ DNA,"pGFP; time 240 min, listed as red",2995.5 nm
same,EGFP expression,"COS-7 cells [2]; 2 μM lipid, 4 h exposure in serum-free medium, 48 h",relatively low levels
same,EGFP expression (transfection),"COS-7 cells [2]; 10 μM and 20 μM lipid, 4 h exposure in serum-free medium, 48 h",increased significantly
same,EGFP expression (transfection),"COS-7 cells [2]; 40 μM lipid, 4 h exposure in serum-free medium, 48 h",significantly reduced
same,cell death by phase contrast microscopy,COS-7 cells [2]; concentrations above 40 μM,Significant cell death
same,luciferase expression (normalized to total cell protein),"COS-7 cells [3]; 2 hours exposure, serum-free, 2 μM and 40 μM and 60 μM",low
same,luciferase expression (normalized to total cell protein),"COS-7 cells [3]; 2 hours exposure, serum-free, 4 μM to 20 μM",significantly higher
same,luciferase expression versus Lipofectamine 2000 and TransIT-LT1,"COS-7 cells [3]; four and twelve hours exposure, serum-free, 6 μM to 20 μM",comparable to or measured to be in excess of
same,concentrations at which maximum gene expression is observed,COS-7 cells [3]; four hours exposure,20 µM and 40 µM
same,Number-Avg Diameter,"pEGFP-N1; [BFDMA] 2 μM, 600 ng DNA, listed as Red. BFDMA",158 (±64) nm
same,Intensity-Avg Diameter,"pEGFP-N1; [BFDMA] 2 μM, listed as Red. BFDMA",369 (±74) nm
same,Intensity-Avg Diameter,pEGFP-N1; [14],603 (±262) nm
same,Number-Avg Diameter,pEGFP-N1; [14],231 (±88) nm
same,Intensity-Avg Diameter,pEGFP-N1; [15],951 (±504) nm
same,Number-Avg Diameter,pEGFP-N1; [15],297 (±126) nm
same,Intensity-Avg Diameter,pEGFP-N1; [16],1118 (±426) nm
same,Number-Avg Diameter,pEGFP-N1; [16],219 (±126) nm
same,Intensity-Avg Diameter,pEGFP-N1; [17],2766 (±725) nm
same,Number-Avg Diameter,pEGFP-N1; [17],1490 (±750) nm
same,Intensity-Avg Diameter,pEGFP-N1; [18],4777 (±1350) nm
same,Number-Avg Diameter,pEGFP-N1; [18],1921 (±1220) nm
same,cytotoxicity,"COS-7 cells [8]; 2 hours exposure, 2 μM to 10 μM",not cytotoxic
same,cytotoxicity,"COS-7 cells [8]; 2 hours exposure, 20 μM",increases slightly
same,cytotoxicity,"COS-7 cells [8]; 2 hours exposure, 40 μM and 60 μM",substantially cytotoxic
same,cytotoxicity,"COS-7 cells [8]; 12 hours exposure, 6 μM to 10 μM, versus two or four hours",more cytotoxic
same,cytotoxicity,"COS-7 cells [8]; 12 hours exposure, 20 μM",cytotoxic
same,cytotoxicity,"COS-7 cells [8]; two or four hours exposure, 20 μM",not substantially cytotoxic
